In patent US10294202B2, “Pyrrolidinones as herbicides” (FMC Corporation, priority 2013, dated 2019):

Legend:
[1] = tested on: galium; test: Test C pre-/postemergence herbicide test; assay type: in vivo, Galium aparine; conditions: Preemergence
In short: (§1)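 Greenhouse plants scored visually against untreated controls 13–15 days after treatment, 0 = no effect, 100 = complete control. Test chemicals in a non-phytotoxic solvent with surfactant were applied either to soil (loam/sand) at planting or to foliage of 1- to 4-leaf plants, 2–18 cm tall.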

[2] = tested on: ragweed; test: Test C pre-/postemergence herbicide test; assay type: in vivo, Ambrosia elatior; conditions: Preemergence
In short: as §1

[3] = tested on: corn; test: Test C pre-/postemergence herbicide test; assay type: in vivo, Zea mays; conditions: Preemergence
In short: as §1

[4] = tested on: soybean; test: Test C pre-/postemergence herbicide test; assay type: in vivo, Glycine max; conditions: Preemergence
In short: as §1

[5] = tested on: ryegrass, Italian; test: Test C pre-/postemergence herbicide test; assay type: in vivo, Lolium multiflorum; conditions: Preemergence
In short: as §1

[6] = tested on: oat, wild; test: Test C pre-/postemergence herbicide test; assay type: in vivo, Avena fatua; conditions: Preemergence
In short: as §1

[7] = tested on: wheat; test: Test A pre-/postemergence herbicide test; assay type: in vivo, Triticum aestivum
In short: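 Visual 0–100 ratings (100 = complete control) made about 10 days after treatment, greenhouse-held plants compared with untreated controls. Treatments: postemergence sprays on one- to two-leaf plants (2–10 cm tall) and preemergence directed soil sprays after planting in loam–sand, chemicals formulated in non-phytotoxic solvent containing surfactant.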

[8] = tested on: blackgrass; test: Test C pre-/postemergence herbicide test; assay type: in vivo, Alopecurus myosuroides; conditions: Preemergence
In short: as §1

[9] = tested on: crabgrass, large; test: Test C pre-/postemergence herbicide test; assay type: in vivo, Digitaria sanguinalis; conditions: Preemergence
In short: as §1

[10] = tested on: johnsongrass; test: Test C pre-/postemergence herbicide test; assay type: in vivo, Sorghum halepense; conditions: Preemergence
In short: as §1

[11] = 31 g ai/ha, scale 0 to 100, 0 is no effect and 100 is complete control
[12] = 125 g ai/ha, scale 0 to 100 (0 no effect, 100 complete control)

SMILES: O=C1NCC(c2cccc(OC(F)(F)F)c2)C1C(=O)Nc1ccccc1F (stereo not drawn) [Compound 69]
- Galium plant response rating [1, 11]: 0
- Plant response rating, Galium ([1]; 62 g ai/ha, scale 0 to 100): 0
- Plant response rating, Galium [1, 12]: 5
- Plant response rating (scale of 0 to 100), Galium ([1]; 250 g ai/ha): 75
- Ragweed plant response rating [2, 11]: 0
- Plant response rating, Ragweed ([2]; 62 g ai/ha, scale 0 to 100): 0
- Plant response rating, Ragweed [2, 12]: 0
- Plant response rating (scale of 0 to 100), Ragweed ([2]; 250 g ai/ha): 20
- Corn plant response rating [3, 11]: 15
- Plant response rating, Corn ([3]; 62 g ai/ha, scale 0 to 100): 15
- Plant response rating, Corn [3, 12]: 25
- Plant response rating (scale of 0 to 100), Corn ([3]; 250 g ai/ha): 30
- Soybean plant response rating [4, 11]: 0
- Plant response rating, Soybean ([4]; 62 g ai/ha, scale 0 to 100): 0
- Plant response rating, Soybean [4, 12]: 0
- Plant response rating (scale of 0 to 100), Soybean ([4]; 250 g ai/ha): 0
- Ryegrass, Italian plant response rating [5, 11]: 0
- Plant response rating, Ryegrass, Italian ([5]; 62 g ai/ha, scale 0 to 100): 0
- Plant response rating, Ryegrass, Italian [5, 12]: 0
- Plant response rating (scale of 0 to 100), Ryegrass, Italian ([5]; 250 g ai/ha): 10
- Plant response rating, Oat, Wild ([6]; 62 g ai/ha, scale 0 to 100): 0
- Plant response rating, Oat, Wild [6, 12]: 5
- Plant response rating (scale of 0 to 100), Oat, Wild ([6]; 250 g ai/ha): 5
- Plant response rating, Wheat ([7]; Postemergence, 125 g ai/ha, 0 to 100 scale, 0 no effect, 100 complete control): 0
- Plant response rating, Wheat ([7]; Postemergence, 500 g ai/ha, 0 to 100 scale (0 no effect, 100 complete control)): 40
- Wheat plant response rating ([7]; Preemergence, 125 g ai/ha, visual rating on 0 to 100 scale (0 no effect, 100 complete control)): 0
- Plant response rating, Wheat ([7]; preemergence, 500 g ai/ha, 0 to 100 scale): 20
- Blackgrass plant response rating [8, 11]: 0
- Plant response rating, Blackgrass ([8]; 62 g ai/ha, scale 0 to 100): 5
- Plant response rating, Blackgrass [8, 12]: 30
- Plant response rating (scale of 0 to 100), Blackgrass ([8]; 250 g ai/ha): 35
- Crabgrass, Large plant response rating [9, 11]: 90
- Plant response rating, Crabgrass, Large ([9]; 62 g ai/ha, scale 0 to 100): 90
- Plant response rating, Crabgrass, Large [9, 12]: 95
- Plant response rating (scale of 0 to 100), Crabgrass, Large ([9]; 250 g ai/ha): 95
- Johnsongrass plant response rating [10, 11]: 0
- Plant response rating, Johnsongrass ([10]; 62 g ai/ha, scale 0 to 100): 0
- Plant response rating, Johnsongrass [10, 12]: 0
- Plant response rating (scale of 0 to 100), Johnsongrass ([10]; 250 g ai/ha): 0
